Results reported in paper PMC3567212 (Biochemistry, 2012).
Changes are numbered by the printed parent chain.

Experiments:
Test in all cases: coupled spectrophotometric assay
Type in all cases: biochemical
[1] = target: T1, Rhizobium etli pyruvate carboxylase (RePC) (Rhizobium etli, UniProt Q2K340, R427S)
T1 sequence (Q2K340 1-1154 R427S): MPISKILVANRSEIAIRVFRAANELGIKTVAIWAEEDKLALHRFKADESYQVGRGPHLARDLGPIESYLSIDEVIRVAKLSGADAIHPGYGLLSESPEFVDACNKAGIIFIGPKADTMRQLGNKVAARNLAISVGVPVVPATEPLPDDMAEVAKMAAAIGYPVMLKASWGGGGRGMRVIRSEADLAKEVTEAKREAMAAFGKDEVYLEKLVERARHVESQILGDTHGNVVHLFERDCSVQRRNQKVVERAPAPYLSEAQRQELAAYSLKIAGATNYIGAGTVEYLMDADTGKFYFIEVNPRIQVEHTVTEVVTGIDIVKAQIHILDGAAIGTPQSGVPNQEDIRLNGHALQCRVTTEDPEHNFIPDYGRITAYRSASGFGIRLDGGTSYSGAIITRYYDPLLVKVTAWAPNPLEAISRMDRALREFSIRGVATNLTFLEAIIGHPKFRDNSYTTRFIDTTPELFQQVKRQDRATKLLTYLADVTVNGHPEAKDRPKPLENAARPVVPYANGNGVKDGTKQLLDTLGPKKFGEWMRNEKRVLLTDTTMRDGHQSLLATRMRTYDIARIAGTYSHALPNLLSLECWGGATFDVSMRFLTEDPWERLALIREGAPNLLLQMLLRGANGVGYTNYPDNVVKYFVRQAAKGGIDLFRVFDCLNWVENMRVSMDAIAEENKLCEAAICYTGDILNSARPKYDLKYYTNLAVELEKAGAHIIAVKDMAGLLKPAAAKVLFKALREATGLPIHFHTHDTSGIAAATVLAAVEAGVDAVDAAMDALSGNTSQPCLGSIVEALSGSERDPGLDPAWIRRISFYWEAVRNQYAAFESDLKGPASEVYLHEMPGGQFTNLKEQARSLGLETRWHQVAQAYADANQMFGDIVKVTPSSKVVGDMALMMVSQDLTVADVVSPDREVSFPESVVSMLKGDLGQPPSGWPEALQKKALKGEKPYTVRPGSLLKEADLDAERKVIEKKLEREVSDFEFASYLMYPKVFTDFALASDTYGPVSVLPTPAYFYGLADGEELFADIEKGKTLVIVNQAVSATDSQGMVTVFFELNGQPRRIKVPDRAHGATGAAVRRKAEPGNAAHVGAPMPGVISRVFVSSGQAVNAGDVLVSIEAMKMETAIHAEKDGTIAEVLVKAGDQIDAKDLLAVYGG

[2] = target: T2, Rhizobium etli pyruvate carboxylase (RePC) (Rhizobium etli, UniProt Q2K340, R427K)
T2 sequence (Q2K340 1-1154 R427K): T1 sequence (Q2K340 1-1154 R427S) with S427K

[3] = target: Rhizobium etli pyruvate carboxylase (RePC) (Rhizobium etli, UniProt Q2K340, R472S)

Question: Which Ki [1] does the source give for `N[C@@H](CC(=O)O)C(=O)O` [L-aspartate] here?
Answer: The Ki was 7 ± 1 mM.

Question: And the Ki [2]?
Answer: Its Ki is 4.5 ± 0.6 mM.

Question: What about the Ki [3] of the same molecule?
Answer: Its Ki is 7 ± 1 mM.
